Reference: patent US11246929B2, “Combination of a protein kinase inhibitor and an additional chemotherapeutic agent” (Merck Patent GmbH, priority 2016, dated 2022)
Each block holds one compound with its values, some of them ahead of it.

How the values were obtained:
[1] = system: A549 (lung, adeno) xenograft; experiment: Xenograft, fractionated IR plus Compound 1, time to TV400%; type: in vivo, mouse
Protocol: The therapeutic relevance of DNA-PK inhibition by Compound 1 was investigated in vivo in combination with ionizing radiation (IR), a clinically established DSB-inducing treatment. Compound 1 was tested for activity in six xenograft mouse models of human cancer. The models were chosen from different cancer indications (colon, lung, head and neck, pancreatic), and histological subtypes (adeno, squamous, large cell). Ionizing radiation was administered using a fractionated schedule of 2 Gy per day administered over five consecutive days (total radiation dose=10 Gy). Compound 1 was given orally 10 min prior to each fraction of radiation (ONC397-1-2AZ, ONC397-1-3AZ, ONC397-1-4AZ, ONC397-1-5AZ, ONC397-1-8AZ).
Radiotherapy enhancing effect of Compound 1 was quantified across the tested models by the time to reaching 400% initial volume for the 150 mg/kg study arms. The resulting Kaplan-Meier plots were compared by the log-rank test.

JEG3 [2] = experiment: Single agent activity, panel of 81 cancer cell lines plus PBMC; type: cell-based; conditions: Homo sapiens, JEG-3, lower end of range
15M15C3 = experiment: SRB growth inhibition, 93 cell lines panel; type: cell-based; conditions: 15M15C3, bladder; read-out: GI50 of etoposide (±Compound 1)
Protocol: (§1) 90 μl of cells, after a 48-hour pre-growth period, were treated by mixing with 10 μl of the compound-containing media (resulting in a final DMSO concentration of 0.1%).
(§2) This is the drug concentration causing a 50% reduction compared to the net protein increase in control cells during the drug incubation period. In other words, G150 is IC50 corrected for time zero. […] TGI was calculated from Ti=Tz. […] It was calculated as 100×[(Ti−Tz)/Tz]=−50.

5637 = experiment: SRB growth inhibition, 93 cell lines panel; type: cell-based; conditions: 5637, bladder; read-out: GI50 of etoposide (±Compound 1)
Protocol: as §1, §2

A204 = experiment: SRB growth inhibition, 93 cell lines panel; type: cell-based; conditions: Homo sapiens; A204, muscle; read-out: GI50 of etoposide (±Compound 1)
Protocol: as §1, §2

A375 = experiment: SRB growth inhibition, 93 cell lines panel; type: cell-based; conditions: Homo sapiens, A-375; A375, skin; read-out: GI50 of etoposide (±Compound 1)
Protocol: as §1, §2

BXPC3 = experiment: SRB growth inhibition, 93 cell lines panel; type: cell-based; conditions: Homo sapiens, BXPC-3; BXPC3, pancreas; read-out: GI50 of etoposide (±Compound 1)
Protocol: as §1, §2

C33A = experiment: SRB growth inhibition, 93 cell lines panel; type: cell-based; conditions: Homo sapiens, C-33-A, cervix, read-out: GI50 of etoposide (±Compound 1)
Protocol: as §1, §2

CLS439 = experiment: SRB growth inhibition, 93 cell lines panel; type: cell-based; conditions: CLS439, bladder; read-out: GI50 of etoposide (±Compound 1)
Protocol: as §1, §2

HEK293 = experiment: SRB growth inhibition, 93 cell lines panel; type: cell-based; conditions: Homo sapiens; HEK293, kidney; read-out: GI50 of etoposide (±Compound 1)
Protocol: as §1, §2

HL-60 = experiment: SRB growth inhibition, 93 cell lines panel; type: cell-based; conditions: Homo sapiens; HL-60, hematological; read-out: GI50 of etoposide (±Compound 1)
Protocol: as §1, §2

HS578T = experiment: SRB growth inhibition, 93 cell lines panel; type: cell-based; conditions: Homo sapiens, Hs-578T, breast, read-out: GI50 of etoposide (±Compound 1)
Protocol: as §1, §2

HT1080 = experiment: SRB growth inhibition, 93 cell lines panel; type: cell-based; conditions: Homo sapiens, HT-1080; HT1080, connective tissue; read-out: GI50 of etoposide (±Compound 1)
Protocol: as §1, §2

HT29 = experiment: SRB growth inhibition, 93 cell lines panel; type: cell-based; conditions: Homo sapiens, HT-29; HT29, colon; read-out: GI50 of etoposide (±Compound 1)
Protocol: as §1, §2

JAR = experiment: SRB growth inhibition, 93 cell lines panel; type: cell-based; conditions: placenta, read-out: GI50 of etoposide (±Compound 1)
Protocol: as §1, §2

JEG3 [3] = experiment: SRB growth inhibition, 93 cell lines panel; type: cell-based; conditions: Homo sapiens, JEG-3; JEG3, placenta; read-out: GI50 of etoposide (±Compound 1)
Protocol: as §1, §2

KASUMI-1 = experiment: SRB growth inhibition, 93 cell lines panel; type: cell-based; conditions: Homo sapiens; KASUMI-1, hematological; read-out: GI50 of etoposide (±Compound 1)
Protocol: as §1, §2

L-363 = experiment: SRB growth inhibition, 93 cell lines panel; type: cell-based; conditions: Homo sapiens; L-363, hematological; read-out: GI50 of etoposide (±Compound 1)
Protocol: as §1, §2

MCF7 = experiment: SRB growth inhibition, 93 cell lines panel; type: cell-based; conditions: Homo sapiens; MCF7, breast; read-out: GI50 of etoposide (±Compound 1)
Protocol: as §1, §2

MHHES1 = experiment: SRB growth inhibition, 93 cell lines panel; type: cell-based; conditions: Homo sapiens, MHH-ES-1; MHHES1, bone; read-out: GI50 of etoposide (±Compound 1)
Protocol: as §1, §2

NCIH358M = experiment: SRB growth inhibition, 93 cell lines panel; type: cell-based; conditions: NCI-H358M, lung, read-out: GI50 of etoposide (±Compound 1)
Protocol: as §1, §2

NCIH82 = experiment: SRB growth inhibition, 93 cell lines panel; type: cell-based; conditions: Homo sapiens, NCI-H82; NCIH82, lung; read-out: GI50 of etoposide (±Compound 1)
Protocol: as §1, §2

PANC1005 = experiment: SRB growth inhibition, 93 cell lines panel; type: cell-based; conditions: Homo sapiens; PANC1005, pancreas; read-out: GI50 of etoposide (±Compound 1)
Protocol: as §1, §2

PANC1 = experiment: SRB growth inhibition, 93 cell lines panel; type: cell-based; conditions: Homo sapiens, PANC-1; PANC1, pancreas; read-out: GI50 of etoposide (±Compound 1)
Protocol: as §1, §2

RD = experiment: SRB growth inhibition, 93 cell lines panel; type: cell-based; conditions: Homo sapiens, muscle, read-out: GI50 of etoposide (±Compound 1)
Protocol: as §1, §2

SKOV3 = experiment: SRB growth inhibition, 93 cell lines panel; type: cell-based; conditions: Homo sapiens, SK-OV-3; SKOV3, ovary; read-out: GI50 of etoposide (±Compound 1)
Protocol: as §1, §2

SW620 = experiment: SRB growth inhibition, 93 cell lines panel; type: cell-based; conditions: Homo sapiens, SW-620; SW620, colon; read-out: GI50 of etoposide (±Compound 1)
Protocol: as §1, §2

Structure (SMILES): COc1ccc([C@@H](O)c2cc(-c3ncnc4cc(N5CCOCC5)ccc34)c(F)cc2Cl)nn1 [Compound 1, (S)-[2-chloro-4-fluoro-5-(7-morpholin-4-yl-quinazolin-4-yl)-phenyl]-(6-methoxy-pyridazin-3-yl)-methanol]
Enhancement Ratio [combi/IR only] ([1]; IR 10 Gy (5 x 2 Gy) + Compound 1 150 mg/kg po): 1.5 | median time to TV400% Combi ([1]; IR 10 Gy (5 x 2 Gy) + Compound 1 150 mg/kg po 10 min prior to each fraction): 42 days

GI50 (JEG3 [2]): 30 nM | GI50 (A375): 378 nM | GI50 (BXPC3): 7140 nM | GI50 (HL-60): 120 nM | GI50 (HT1080): 96 nM | GI50 (HT29): 2220 nM | GI50 (MCF7): 1290 nM | GI50 (PANC1005): 2730 nM | GI50 (PANC1): 1920 nM | GI50 (SKOV3): 2990 nM | GI50 (SW620): 302 nM
Structure (SMILES): COc1cc([C@@H]2c3cc4c(cc3[C@@H](O[C@@H]3O[C@@H]5CO[C@@H](C)O[C@H]5[C@H](O)[C@H]3O)[C@H]3COC(=O)[C@H]23)OCO4)cc(OC)c1O [Etoposide]
GI50 (15M15C3): 604 nM | GI50 5637: 685 nM | GI50 (A204): 286 nM | GI50 (C33A): 393 nM | GI50 (CLS439): 965 nM | GI50 (HEK293): 190 nM | GI50 (HS578T): 874 nM | GI50 (JAR): 116 nM | GI50 (JEG3 [3]): 41 nM | GI50 (KASUMI-1): 494 nM | GI50 (L-363): 327 nM | GI50 (MHHES1): 227 nM | GI50 (NCIH358M): 3330 nM | GI50 (NCIH82): 1150 nM | GI50 (RD): > 10000 nM
